A short description of series [1]: Stability at high temperature and high humidity (residual content). In kind it is physicochemical. Here is the method:
The stability of compounds 1-1, 2-1 and the indole analogue 3-[(1-methyl-1H-indole-2-carbonyl) amino]propionic acid disclosed in CN2019107285315 was tested by experiments at high temperature and high humidity. The compounds were placed in 24-well plates, spread as a thin layer with a thickness of no more than 5 mm and placed in an oven at 60° C. for 10 days. Observation of appearance, TLC identification and determination of absorbance were carried out on the 5th day and the 10th day, respectively, in order to compare with the samples on the 0th day. An amount of compounds were taken into tightly closed brown colored penicillin bottles (the compounds were spread as a thin layer with a thickness of no more than 5 mm) and then placed into a tightly closed container with saturated NaCl solution and left at room temperature away from light for 10 days. Observation of appearance, TLC identification and determination of absorbance were carried out on the 5th day and the 10th day, respectively, in order to compare with the samples on the 0th day.

In the next series the target is T1, TRPC6 channel (Homo sapiens, UniProt Q9Y210).
T1 sequence (Q9Y210 1-931): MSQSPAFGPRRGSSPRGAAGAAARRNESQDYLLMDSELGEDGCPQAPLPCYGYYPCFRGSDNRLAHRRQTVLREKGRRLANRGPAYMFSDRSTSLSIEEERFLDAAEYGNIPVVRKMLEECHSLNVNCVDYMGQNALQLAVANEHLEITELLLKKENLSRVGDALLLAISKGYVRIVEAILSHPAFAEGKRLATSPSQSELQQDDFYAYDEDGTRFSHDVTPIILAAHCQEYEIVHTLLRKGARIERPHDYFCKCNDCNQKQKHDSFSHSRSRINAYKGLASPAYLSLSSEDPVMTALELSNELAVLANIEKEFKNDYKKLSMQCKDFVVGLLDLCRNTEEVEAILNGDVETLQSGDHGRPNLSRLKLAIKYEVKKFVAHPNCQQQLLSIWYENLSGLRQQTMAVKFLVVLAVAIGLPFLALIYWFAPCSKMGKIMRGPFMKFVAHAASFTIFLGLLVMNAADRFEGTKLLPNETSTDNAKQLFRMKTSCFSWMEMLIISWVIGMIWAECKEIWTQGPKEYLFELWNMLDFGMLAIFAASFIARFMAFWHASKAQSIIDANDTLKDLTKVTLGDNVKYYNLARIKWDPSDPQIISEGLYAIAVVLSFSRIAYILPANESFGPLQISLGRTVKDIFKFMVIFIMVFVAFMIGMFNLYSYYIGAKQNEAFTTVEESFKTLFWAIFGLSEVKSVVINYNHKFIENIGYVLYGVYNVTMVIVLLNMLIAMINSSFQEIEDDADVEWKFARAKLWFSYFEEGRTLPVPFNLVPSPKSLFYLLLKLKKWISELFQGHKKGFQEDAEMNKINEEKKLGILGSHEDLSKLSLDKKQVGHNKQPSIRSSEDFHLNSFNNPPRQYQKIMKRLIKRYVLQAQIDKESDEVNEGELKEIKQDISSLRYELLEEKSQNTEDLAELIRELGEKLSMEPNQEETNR
In words: In vitro binding to TRPC6 protein by microscale thermophoresis (MST). Also noted: fused on or other part: NT-647-NHS fluorescent dye label (chemical labelling for MST). How it is done: The binding ability of the compounds of the present invention (as exemplified by the compounds obtained in Examples 1 to 3) to the TRPC6 protein was determined using the microscale thermophoresis (MST) method. The method was as follows:
Preparation and labelling of protein solution: TRPC6 protein dry powder (Alomone Labs, Israel) was prepared into a protein mother solution at a concentration of 10 μM using PBS-Buffer, and 35 μL of the protein stock solution was taken to the Buffer exchange A column, and centrifuged to obtain the Tris-removed protein. 34 μL Labelling Buffer was added to the Tris-removed protein according to the instructions of the Protein Fluorescent Labelling Kit (model L001). After mixing well, 3 μL of NT-647-NHS fluorescent dye was added and thus obtained mixture was incubated for 20 minutes. The protein-dye mixture was transferred to the purification B column, 300 μL of PBS-Buffer was added, and the target protein, i.e. fluorescent labelled protein TRPC6, was collected by centrifugation (with a final concentration of about 2 μM). 180 μL of target protein was mixed with 1620 μL of PBS-Buffer, and then 9 μl of Tween-20 were added thereto. Thus the resulting mixture was mixed and then centrifuged to obtain the target protein solution.
Preparation of compound solutions: the compounds were prepared separately with DMSO to storage solutions with a concentration of 10 μM. 10 μL of each storage solution was placed in a […] EP tube, 90 μL of PBS was added thereto and the resulting mixture was thoroughly mixed to prepare 100 μL of working solution at a concentration of 1 μM for later use. Ligand gradient dilutions were made for a total of 16 concentrations, and 10 μL of 10% DMSO-Buffer was added to each of the 15 gradients except gradient 1, followed by the addition of 10 μL of ligand working solution to gradients 1 and 2, respectively. The liquid in tube 2 was mixed and then 10 μL therein was taken into tube 3, and dilution was carried out in this manner until tube 16. […]

The mark [2] stands for this setting: high humidity environment (saturated NaCl, room temperature, away from light), after 5 days.
The mark [3] stands for this setting: high humidity environment (saturated NaCl, room temperature, away from light), after 10 days.
Where [4] appears, read: high temperature environment (oven at 60° C.), after 5 days.
Setting [5] is: high temperature environment (oven at 60° C.), after 10 days.

From patent US12692232B2, “Indole carboxamide compound, preparation therefor and use thereof” (NANJING RUISHUNING MEDICAL TECHNOLOGY CO., LTD., priority 2021, dated 2026) come the findings set out here.

In the case of `Cn1c(C(=O)NCCC(=O)O)cc2ccccc21` [3-[(1-methyl-1H-indole-2-carbonyl)amino]propionic acid, reference compound], the residual content in series [1] (setting [2]) came out at 29.5±0.1%; in series [1] (setting [3]) it was 8.8±0.1%; in series [1] (setting [4]) it was 23.1±0.1%; in series [1] (setting [5]) it was 4.2±0.1%. On TRPC6 channel, the dissociation constant Kd (commonly the equilibrium constant for the complex coming apart) came out at 29.78 ± 0.26 µM.
On the same counts, the results for `CC(=O)OCCCNC(=O)c1c(C=O)c2ccccc2n1C` [compound 1-1, propyl 3-[(3-formyl-1-methyl-1H-indole-2-carbonyl)amino]acetate] are 93.5±0.4%, 90.7±0.3%, 95.4±08%, 94.2±0.6% and 12 ± 3.61 µM.
For `Cn1c(C(=O)NCCCOC(=O)c2ccccc2)c(C=O)c2ccccc21` [compound 2-1], the residual content in series [1] (setting [2]) is recorded as 94.2±0.3%; in series [1] (setting [3]), 90.1±0.8%; in series [1] (setting [4]) it was 93.6±0.6%; in series [1] (setting [5]), 91.7±0.5%. On TRPC6 channel, binding was characterised by a dissociation constant (Kd) of 19 ± 3.15 µM.
